From publication PMC7483518, “Destabilizing single chain major histocompatibility complex class I protein for repurposed enterokinase proteolysis” (Scientific Reports, 2020) come the findings set out here.

For test [1], the system named is HLA-A*11:01 single chain protein. Format: biochemical, Human. More on the design: EZ50kDa / EZ50kD (pH 6.2) / EZ50kD (pH 8) / EZ50kD (normalised: EBV1101 = 1, EBV0201 = 0) / EZ50kDa rank: unit not given beside the values. The settings on record: for EZ50kDa: Table 3, EGFR peptide library (n = 177, duplicated), pH 6.2, 37 °C, 14 h, enterokinase, Eq. (4); for vol: mean Adj. Volume of the 2 replicates; for Batch Mean: mean of the 2 replicates of EZ50kD.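 For EZ50kDa: intact 50 kDa band volume scaled with positive control peptide as 1 and negative as 0.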

Test [2] deals with photolabile unchained HLA-A*11:01 pMHC-I protein (Homo sapiens, UniProt P04439, A114D/D185E/E176A/F33Y/L180Q/S129P/T187R). Put plainly: ELISA with photolabile unchained pMHC-I protein and UV irradiation. Format: binding.
In test [3] the target is T1, photo-labile unchained HLA-A*11:01 MHC-I protein (Homo sapiens, UniProt P04439, A114D/D185E/E176A/F33Y/L180Q/S129P/T187R).
T1 construct: made in house
Put plainly: Photo-labile unchained MHC-I protein treated with UV, peptides and enterokinase (SDS-PAGE band volume). Format: biochemical. The conditions noted are these: for vol: mean Adj. Volume of the 2 replicates; for Batch Mean: mean of the 2 replicates of EZ50kD.

Where [4] appears, read: EGFR mutation peptide library and control peptides, HLA-A*11:01, mean, STDEV.

Where “and” joins values, the source holds several entries; their conditions need not be identical. Equal values may be shown once. Read-outs that look alike come from different tables or passages of the source.

In the case of GSLLDYVREHK [CS1037], in test [1], the EZ_mean worked out at 0.3673, the EZ50kDa is listed as 0.367 ± 0.022, the vol is 11854307 and the “Batch Mean” value came to 0.2216. Also, the EASY_mean in test [2] is recorded as 0.5397. For the same sequence, in test [3], the vol is reported as 9517473 and the “Batch Mean” value is given as -1.196.

As for MQLMPFGCLLDY [TM1050], in test [1], the EZ_mean turned out to be 0.09599, the EZ50kDa is given as 0.0956 ± 0.004, the vol is listed as 8153341 and the “Batch Mean” value came out at 0.1072. In test [2], this sequence returned an EASY_mean of 0.2124. In test [3], the vol is 5027054 and the “Batch Mean” value was -0.2574.

For the sequence QLMPFGSLLDY [CS1032], in test [1], the EZ_mean came out at 0.8691, the Norm_mean stood at 1.167, the EZ50kDa is recorded as 0.869 ± 0.174 and the vol was 30217126. Moreover, the “Batch Mean” value in test [1] is reported as 0.787. For the same sequence, the EASY_mean in test [2] (setting [4]) was 0.7325. For the same sequence, in test [3], the vol came out at 11215354 and the “Batch Mean” value is listed as -0.05053.

For the sequence SLLDYVREH [CS1017], the EZ_mean in test [1] (EASY MHC-I A*11:01, 2019-08-01, mean of the 2 replicates) turned out to be 0.7333. Further, the “EZ MHC-I stability with HLA-A*11:01 single chain protein” value in test [1] (Fig. 2f,g, EGFR peptide library) is “strongly stabilizing”. Also, in test [1], the EZ50kDa worked out at 0.733 ± 0.140, the vol is 26057980 and the “Batch Mean” value was determined as 0.6595. The EASY_mean in test [2] is 0.4725. Besides, in test [3], the vol is 10431446 and the “Batch Mean” value is reported as -0.3978.

In test [1], SLLDYVREHK [CS1027] displayed an EZ_mean of 0.9134, a Norm_mean of 1.317, an EZ50kDa of 0.811 ± 0.171 and a vol of 29201845. Further, in test [1], the “Batch Mean” value is on record as 0.7556. This sequence returned an EASY_mean in test [2] (setting [4]) of 0.7046. For the same sequence, in test [3], the vol is 11075589 and the “Batch Mean” value was -1.466.

Consider SLLDYVREHKDN [CS1050], for which, in test [1], the EZ50kDa is on record as 0.0255 ± 0.005, the vol came out at 7574013 and the “Batch Mean” value amounted to 0.08881. Moreover, in test [2], the EASY_mean was 0.2031. For the same sequence, in test [3], the vol came out at 12012525 and the “Batch Mean” value is -2.24.

For the sequence “VAIKTSPKANK [EX1018, EGFR exon 19 deletion-derived peptide]”, the EZ_mean in test [1] (EASY MHC-I A*11:01, 2019-07-26, mean of the 2 replicates) was 0.2216. Further, in test [1], the EZ50kDa was 0.2 and 0.222 ± 0.010; the vol came out at 9218005; the “Batch Mean” value turned out to be 0.1404. Moreover, the EASY_mean in test [2] ([…], mean, STDEV) was 0.2323. Besides, in test [3], the vol amounted to 8041509 and the “Batch Mean” value is recorded as 0.2261.
